Results on nine molecules are retold here after ChEMBL document CHEMBL2074081, “Functional characteristics and membrane localization of rat multispecific organic cation transporters, OCT1 and OCT2, mediating tubular secretion of cationic drugs” (J Pharmacol Exp Ther, 1998).

The target in data set [1] is T1, Solute carrier family 22 member 1 (Rattus norvegicus, UniProt Q63089).
T1 sequence (Q63089 whole entry): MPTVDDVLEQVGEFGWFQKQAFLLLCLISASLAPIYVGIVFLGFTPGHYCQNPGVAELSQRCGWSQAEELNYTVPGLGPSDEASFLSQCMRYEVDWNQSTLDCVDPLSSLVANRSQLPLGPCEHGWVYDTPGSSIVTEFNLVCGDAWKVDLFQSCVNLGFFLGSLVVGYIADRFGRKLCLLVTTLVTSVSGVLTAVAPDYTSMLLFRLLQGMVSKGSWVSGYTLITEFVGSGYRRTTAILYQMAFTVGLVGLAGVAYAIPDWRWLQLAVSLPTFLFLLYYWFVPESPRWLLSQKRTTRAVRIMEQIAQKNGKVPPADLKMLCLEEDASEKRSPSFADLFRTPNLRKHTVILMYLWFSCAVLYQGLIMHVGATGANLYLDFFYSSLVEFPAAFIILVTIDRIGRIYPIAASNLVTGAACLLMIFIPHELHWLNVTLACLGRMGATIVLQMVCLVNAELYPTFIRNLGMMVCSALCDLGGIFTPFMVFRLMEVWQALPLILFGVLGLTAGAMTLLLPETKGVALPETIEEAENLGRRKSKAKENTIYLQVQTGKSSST
The data set can be described thus: TP_TRANSPORTER: inhibition of TEA uptake (basolateral to cell) in OCT1-expressing MDCK cells. In kind it is functional, cell-based.

Data set [2] concerns the target T2, Solute carrier family 22 member 2 (Rattus norvegicus, UniProt Q9R0W2).
T2 sequence (Q9R0W2 whole entry): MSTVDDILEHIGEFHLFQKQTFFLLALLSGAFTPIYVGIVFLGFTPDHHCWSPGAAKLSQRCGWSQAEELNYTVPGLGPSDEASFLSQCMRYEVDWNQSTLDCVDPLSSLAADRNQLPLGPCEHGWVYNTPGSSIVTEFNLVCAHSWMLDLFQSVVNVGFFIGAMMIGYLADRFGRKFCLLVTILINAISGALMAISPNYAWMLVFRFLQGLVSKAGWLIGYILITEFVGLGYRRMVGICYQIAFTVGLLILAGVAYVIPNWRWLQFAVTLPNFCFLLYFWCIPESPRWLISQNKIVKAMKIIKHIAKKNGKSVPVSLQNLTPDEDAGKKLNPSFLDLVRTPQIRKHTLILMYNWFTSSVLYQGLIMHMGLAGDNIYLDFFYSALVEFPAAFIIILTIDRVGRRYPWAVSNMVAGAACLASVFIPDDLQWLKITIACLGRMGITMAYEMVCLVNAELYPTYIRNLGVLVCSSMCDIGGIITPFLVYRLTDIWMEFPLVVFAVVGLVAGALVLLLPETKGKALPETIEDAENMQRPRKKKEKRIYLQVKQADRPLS
As to the kind of experiment: TP_TRANSPORTER: inhibition of TEA uptake (basolateral to cell) in OCT2-expressing MDCK cells. In kind it is functional, cell-based.

For data set [3], the target named is T2, Solute carrier family 22 member 2. As to the kind of experiment: TP_TRANSPORTER: inhibition of TEA uptake (apical to cell) in OCT2-expressing MDCK cells.
Substrate in data set [4]: CC[N+](CC)(CC)CC
The data set can be described thus: cells, lysate or membranes named.

Consider `N=C(N)N` [GUANIDINE], for which the Ki in data set [1] was 724 µM; in data set [2], 714 µM.
Turning to `C=C[C@H]1C[N@@]2CC[C@H]1C[C@@H]2[C@@H](O)c1ccnc2ccc(OC)cc12` [QUINIDINE], in data set [2], the Ki was found to be 19.1 µM. This counts as double-digit micromolar.
In the case of `CN/C(=N/CCSCc1nc[nH]c1C)NC#N` [CIMETIDINE], the Ki was 5.7 µM in data set [1] and 9.4 µM in data set [2].
Regarding `CN1CCC[C@H]1c1cccnc1` [NICOTINE], the values for the Ki in data set [1] and in data set [2] were 64.3 µM and 50.5 µM, respectively.
Regarding `C[n+]1ccc(-c2ccccc2)cc1`, the values for the Ki in data set [1] and in data set [2] were 0.8 µM and 1.8 µM, respectively.
On the same counts, the results for `CNC(=O)c1cccnc1` [NICOTINYL METHYLAMIDE] are 669 µM and 403 µM.
For `CC[N+](CC)(CC)CC` [TETRYLAMMONIUM], the results for the Ki in data set [1] and in data set [3] were 46.6 µM and 52.2 µM, respectively.

B1: Solute carrier family 22 member 1 (Rattus norvegicus) (protein)
chain: MPTVDDVLEQVGEFGWFQKQAFLLLCLISASLAPIYVGIVFLGFTPGHYCQNPGVAELSQRCGWSQAEELNYTVPGLGPSDEASFLSQCMRYEVDWNQSTLDCVDPLSSLVANRSQLPLGPCEHGWVYDTPGSSIVTEFNLVCGDAWKVDLFQSCVNLGFFLGSLVVGYIADRFGRKLCLLVTTLVTSVSGVLTAVAPDYTSMLLFRLLQGMVSKGSWVSGYTLITEFVGSGYRRTTAILYQMAFTVGLVGLAGVAYAIPDWRWLQLAVSLPTFLFLLYYWFVPESPRWLLSQKRTTRAVRIMEQIAQKNGKVPPADLKMLCLEEDASEKRSPSFADLFRTPNLRKHTVILMYLWFSCAVLYQGLIMHVGATGANLYLDFFYSSLVEFPAAFIILVTIDRIGRIYPIAASNLVTGAACLLMIFIPHELHWLNVTLACLGRMGATIVLQMVCLVNAELYPTFIRNLGMMVCSALCDLGGIFTPFMVFRLMEVWQALPLILFGVLGLTAGAMTLLLPETKGVALPETIEEAENLGRRKSKAKENTIYLQVQTGKSSST
In the case of B1, in data set [4], the Km came out at 38 µM.

B2: Solute carrier family 22 member 2 (Rattus norvegicus) (protein)
chain: MSTVDDILEHIGEFHLFQKQTFFLLALLSGAFTPIYVGIVFLGFTPDHHCWSPGAAKLSQRCGWSQAEELNYTVPGLGPSDEASFLSQCMRYEVDWNQSTLDCVDPLSSLAADRNQLPLGPCEHGWVYNTPGSSIVTEFNLVCAHSWMLDLFQSVVNVGFFIGAMMIGYLADRFGRKFCLLVTILINAISGALMAISPNYAWMLVFRFLQGLVSKAGWLIGYILITEFVGLGYRRMVGICYQIAFTVGLLILAGVAYVIPNWRWLQFAVTLPNFCFLLYFWCIPESPRWLISQNKIVKAMKIIKHIAKKNGKSVPVSLQNLTPDEDAGKKLNPSFLDLVRTPQIRKHTLILMYNWFTSSVLYQGLIMHMGLAGDNIYLDFFYSALVEFPAAFIIILTIDRVGRRYPWAVSNMVAGAACLASVFIPDDLQWLKITIACLGRMGITMAYEMVCLVNAELYPTYIRNLGVLVCSSMCDIGGIITPFLVYRLTDIWMEFPLVVFAVVGLVAGALVLLLPETKGKALPETIEDAENMQRPRKKKEKRIYLQVKQADRPLS
In the case of B2, in data set [4], the Km came to 45 µM.

The term Ki denotes the equilibrium dissociation constant of an inhibitor or competing ligand from its target. A high value points to a looser hold on the target. The term Km denotes the substrate concentration at which the rate is half of its maximum.
